Where a name gives a salt, the structure may show the parent alone.
What was measured:
CSF-1R (FMS) = CSF-1R (FMS) (Homo sapiens (Human), UniProt P07333); details: representative value, substrate Tyr 01, ATP Bin 500 μM; read-out: IC50 (nM) of known inhibitor, CSF-1R (FMS); cited from earlier work
[1] = system: CD11b and CD24 positive cells; experiment: In vivo efficacy study: flow cytometry of blood leukocytes from mice bearing NZM12 human melanoma xenografts; design: species or system NIH-III female mice; details: dosed daily for 14 days

Sequence of CSF-1R (FMS) (P07333 20-972): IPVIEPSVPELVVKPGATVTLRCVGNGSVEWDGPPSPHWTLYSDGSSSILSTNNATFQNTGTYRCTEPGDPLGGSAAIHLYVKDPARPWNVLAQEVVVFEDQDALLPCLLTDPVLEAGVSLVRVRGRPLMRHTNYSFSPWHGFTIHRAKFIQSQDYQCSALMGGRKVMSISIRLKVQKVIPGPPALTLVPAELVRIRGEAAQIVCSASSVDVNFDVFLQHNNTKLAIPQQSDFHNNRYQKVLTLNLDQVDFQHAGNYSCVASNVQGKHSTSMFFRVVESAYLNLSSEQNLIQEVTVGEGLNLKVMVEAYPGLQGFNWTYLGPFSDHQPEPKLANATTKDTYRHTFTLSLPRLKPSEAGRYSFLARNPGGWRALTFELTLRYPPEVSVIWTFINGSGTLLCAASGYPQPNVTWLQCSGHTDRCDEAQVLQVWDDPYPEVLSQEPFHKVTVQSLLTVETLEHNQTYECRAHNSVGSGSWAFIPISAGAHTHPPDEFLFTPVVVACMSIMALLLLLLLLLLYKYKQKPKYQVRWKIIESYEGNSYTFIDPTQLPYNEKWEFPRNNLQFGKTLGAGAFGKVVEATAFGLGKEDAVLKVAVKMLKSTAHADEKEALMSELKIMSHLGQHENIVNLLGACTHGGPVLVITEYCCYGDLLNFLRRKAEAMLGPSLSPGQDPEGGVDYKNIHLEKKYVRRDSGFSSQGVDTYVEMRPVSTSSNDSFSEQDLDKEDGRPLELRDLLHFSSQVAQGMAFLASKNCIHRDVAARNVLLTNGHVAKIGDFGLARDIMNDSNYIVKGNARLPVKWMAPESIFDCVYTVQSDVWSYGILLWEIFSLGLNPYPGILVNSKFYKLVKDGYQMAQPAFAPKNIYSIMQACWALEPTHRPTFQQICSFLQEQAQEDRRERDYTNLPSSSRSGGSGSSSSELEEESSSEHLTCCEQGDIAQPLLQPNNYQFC

## COc1cc2ncnc(Nc3cccc(Cl)c3)c2cc1OC [Tyrphostin AG1478]
CSF-1R (FMS)
  IC50: 6480 nM

## Cc1cc(OCCN(C)C)c2oc3cc(Oc4ccc(CCC(=O)NC5CCCC5)nc4)ccc3c(=O)c2c1 [dimethanesulfonate salt of compound 22, N-cyclopentyl-3-(5-((5-(2-(dimethylamino)ethoxy)-7-methyl-9-oxo-9H-xanthen-3-yl)-oxy)pyridin-2-yl)propanamide]
[1]
  number of cells of myeloid lineage in the treated mice: reduce the number of cells of myeloid lineage
[1]; blood leukocytes, versus PLX3397 and control (FIG. 1)
  levels of CD11b positive cells: reduced the levels of CD11b and CD24 positive cells to a similar or greater extent compared with treatment with PLX3397
[1]; blood leukocytes, versus PLX3397 and control (FIG. 2)
  levels of CD24 positive cells: reduced the levels of CD11b and CD24 positive cells to a similar or greater extent compared with treatment with PLX3397

— US11028064B2, “Tricyclic heterocyclic derivatives and uses thereof” (AUCKLAND UNISERVICES LIMITED, priority 2016, dated 2021)
